Assay results reported in ChEMBL document CHEMBL1130192, “Synthesis and antiviral activity of C2 analogs of enviroxime: an exploration of the role of critical functionality” (J Med Chem, 1997).
Values after ≈ are worked out from the molar mass of the structure shown.

Experiments:
HeLa [1] = assay: Antiviral activity against Poliovirus (PV-1) in HeLa cells using CPE/XTT assay; type: functional, cell-based; conditions: Homo sapiens
HeLa [2] = assay: Antiviral activity against Rhinovirus (RV-14) in HeLa cells using CPE/XTT assay; type: functional, cell-based; conditions: Homo sapiens
HeLa [3] = assay: Antiviral activity against Rhinovirus (RV-16) in HeLa cells using CPE/XTT assay; type: functional, cell-based; conditions: Homo sapiens
HeLa [4] = assay: Antiviral activity against Rhinovirus (RV-2) in HeLa cells using CPE/XTT assay; type: functional, cell-based; conditions: Homo sapiens
HeLa [5] = assay: Antiviral activity against Coxsackievirus (CoxA21) in HeLa cells using CPE/XTT assay; type: functional, cell-based; conditions: Homo sapiens
HeLa [6] = assay: Antiviral activity against Rhinovirus (RV-2) in HeLa cells using CPE/XTT assay in HeLa cells using CPE/XTT assay; type: functional, cell-based; conditions: Homo sapiens
BSC-1 [7] = assay: Antiviral activity against Poliovirus (PV-1) using plaque reduction assay in BSC1 cells; type: functional, cell-based, Cercopithecidae; conditions: Chlorocebus aethiops
BSC-1 [8] = assay: Antiviral activity against Poliovirus (PV-1) using plaque reduction assay using BSC1 cells; type: functional, cell-based, Cercopithecidae; conditions: Chlorocebus aethiops
HeLa [9] = assay: Antiviral activity against Coxsackie virus (CoxA21) in HeLa cells using CPE/XTT assay; type: functional, cell-based; conditions: Homo sapiens

SMILES | IC50 (HeLa [1]) | IC50 (HeLa [2]) | IC50 (HeLa [3]) | IC50 (HeLa [4]) | IC50 (HeLa [5]) | IC50 (HeLa [6]) | IC50 (BSC-1 [7]) | IC50 (BSC-1 [8]) | IC50 (HeLa [9])
Cc1nc2ccc(/C(=N/O)c3ccccc3)cc2n1S(=O)(=O)C(C)C | 0.23 µg/mL (≈ 0.643 µM) | 0.34 µg/mL (≈ 0.951 µM) | 0.18 µg/mL (≈ 0.504 µM) | 0.24 µg/mL (≈ 0.671 µM) | 0.05 µg/mL (≈ 0.14 µM) |  |  |  | 
CC(C)S(=O)(=O)n1c(N(C)C)nc2ccc(/C(=N/O)c3ccccc3)cc21 | 4.55 µg/mL (≈ 11.8 µM) | 49 µg/mL (≈ 127 µM) | 0.64 µg/mL (≈ 1.66 µM) | 30.3 µg/mL (≈ 78.4 µM) | 2.19 µg/mL (≈ 5.67 µM) |  |  |  | 
CC(C)S(=O)(=O)n1cnc2ccc(/C(=N/O)c3ccccc3)cc21 | 0.57 µg/mL (≈ 1.66 µM) | 0.53 µg/mL (≈ 1.54 µM) | 0.16 µg/mL (≈ 0.466 µM) |  | 0.12 µg/mL (≈ 0.349 µM) | 0.19 µg/mL (≈ 0.553 µM) |  |  | 
COc1nc2ccc(/C(=N/O)c3ccccc3)cc2n1S(=O)(=O)C(C)C | 0.57 µg/mL (≈ 1.53 µM) | 0.48 µg/mL (≈ 1.29 µM) | 0.18 µg/mL (≈ 0.482 µM) | 0.54 µg/mL (≈ 1.45 µM) | 0.17 µg/mL (≈ 0.455 µM) |  |  |  | 
CSc1nc2ccc(/C(=N/O)c3ccccc3)cc2n1S(=O)(=O)C(C)C | 0.59 µg/mL (≈ 1.51 µM) | 0.76 µg/mL (≈ 1.95 µM) | 0.18 µg/mL (≈ 0.462 µM) | 0.69 µg/mL (≈ 1.77 µM) | 0.18 µg/mL (≈ 0.462 µM) |  |  |  | 
CC(C)n1c(N)nc2ccc(/C(=N/O)c3ccccc3)cc21 |  |  |  |  |  |  | 0.09 µg/mL (≈ 0.306 µM) |  | 
CNc1nc2ccc(/C(=N/O)c3ccccc3)cc2n1S(=O)(=O)C(C)C | 6.16 µg/mL (≈ 16.5 µM) | 24.4 µg/mL (≈ 65.5 µM) | 1.49 µg/mL (≈ 4 µM) | 54.8 µg/mL (≈ 147 µM) | 7.11 µg/mL (≈ 19.1 µM) |  |  |  | 
CC(C)S(=O)(=O)n1c(N)nc2ccc(/C(=N/O)c3ccccc3)cc21 [ENVIROXIME] | 0.06 µg/mL (≈ 0.167 µM) | 0.04 µg/mL (≈ 0.112 µM) | 0.04 µg/mL (≈ 0.112 µM) | 0.07 µg/mL (≈ 0.195 µM) |  |  |  | 0.02 µg/mL (≈ 0.0558 µM) | 0.05 µg/mL (≈ 0.139 µM)
